System: MDA-MB-231 human breast cancer cells
Test: Cell proliferation assay (CellTiter-Glo, 72 hours treatment)
Format: cell-based
Details: Homo sapiens; MDA-MB-231 cells, 72 hours at 37° C., CellTiter-Glo; read-out: MDA-MB-231 cell proliferation assay (IC50)
Outline: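 MDA-MB-231 cells seeded at 2,500 cells/well, treated next day with compound or DMSO vehicle for 72 h at 37 °C. Proliferation read by CellTiter-Glo; IC50 from sigmoidal non-linear regression, binned as +++ (<100 nM), ++ (100–1000 nM), + (>1000 nM).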

Compound	IC50
COc1nc(Cl)cc2c1[C@]1(O)[C@H](O)[C@H](CN3CCC34CC4(F)F)[C@@H](c3ccccc3)[C@]1(c1ccc(Br)cc1)O2 (mixture of isomers) [220F, Rac-(5aR,6S,7S,8R,8aS)-5a-(4-bromophenyl)-3-chloro-7-((1,1-difluoro-4-azaspiro[2.3]hexan-4-yl)methyl)-1-methoxy-6-phenyl-5a,6,7,8-tetrahydro-8aH-cyclopenta[4,5]furo[3,2-c]pyridine-8,8a-diol]	< 0.1 µM
O[C@@H]1C[C@@H](c2ccccc2)[C@]2(c3ccc(Br)cc3)Oc3cc(Cl)cnc3[C@]12O (racemic) [127F, Rac-(5aR,6S,8R,8aS)-5a-(4-bromophenyl)-3-chloro-6-phenyl-5a,6,7,8-tetrahydro-8aH-cyclopenta[4,5]furo[3,2-b]pyridine-8,8a-diol]	0.1 to 1 µM
COc1cncc2c1[C@]1(O)[C@@H](CN3CC4(COC4)C3)[C@H](CO)[C@@H](c3ccccc3)[C@]1(c1ccc(C#N)cc1)O2 (racemic) [202F, Rac-4-((4bR,5R,6R,7S,7aR)-5-((2-oxa-6-azaspiro[3.3]heptan-6-yl)methyl)-4b-hydroxy-6-(hydroxymethyl)-4-methoxy-7-phenyl-4b,5,6,7-tetrahydro-7aH-cyclopenta[4,5]furo[2,3-c]pyridin-7a-yl)benzonitrile]	< 0.1 µM
CCNC[C@@H]1[C@@H](c2ccccc2)[C@]2(C3=CC=C(C#N)CC3)Oc3cncc(OC)c3[C@]2(O)[C@@H]1O (racemic) [70F, Rac-4-((4bS,5R,6S,7S,7aR)-6-((ethylamino)methyl)-4b,5-dihydroxy-4-methoxy-7-phenyl-4b,5,6,7-tetrahydro-7aH-cyclopenta[4,5]furo[2,3-c]pyridin-7a-yl)cyclohexa-1,3-diene-1-carbonitrile]	0.1 to 1 µM
COc1cncc2c1[C@]1(O)[C@H](O)[C@H](CN3CCN(C(C)=O)CC3)[C@@H](c3ccccc3)[C@]1(c1ccc(C#N)cc1)O2 (racemic) [194F, Rac-4-((4bS,5R,6S,7S,7aR)-6-((4-acetylpiperazin-1-yl)methyl)-4b,5-dihydroxy-4-methoxy-7-phenyl-4b,5,6,7-tetrahydro-7aH-cyclopenta[4,5]furo[2,3-c]pyridin-7a-yl)benzonitrile]	> 1 µM
COc1cncc2c1[C@]1(O)[C@H](O)[C@H](CN(C)CC(F)(F)F)[C@@H](c3ccccc3)[C@]1(c1ccc(C#N)cc1)O2 (single isomer, unassigned) [233F]	0.1 to 1 µM
O[C@@H]1[C@H](Sc2ccccn2)[C@@H](c2ccccc2)[C@]2(c3ccc(Br)cc3)Oc3cc(Cl)cnc3[C@]12O (racemic) [160Fa, Rac-(5aR,6S,7R,8S,8aS)-5a-(4-bromophenyl)-3-chloro-6-phenyl-7-(pyridin-2-ylthio)-5a,6,7,8-tetrahydro-8aH-cyclopenta[4,5]furo[3,2-b]pyridine-8,8a-diol]	0.1 to 1 µM
O=S(=O)(Cc1ccccc1)[C@H]1[C@@H](O)[C@@]2(O)c3ncc(Cl)cc3O[C@@]2(c2ccc(Br)cc2)[C@@H]1c1ccccc1 (racemic) [93F, Rac-(5aR,6S,7R,8S,8aS)-7-(benzylsulfonyl)-5a-(4-bromophenyl)-3-chloro-6-phenyl-5a,6,7,8-tetrahydro-8aH-cyclopenta[4,5]furo[3,2-b]pyridine-8,8a-diol]	> 1 µM
COc1cncc2c1[C@]1(O)[C@H](O)[C@H](S(=O)(=O)CC(F)(F)F)[C@@H](c3ccccc3)[C@]1(c1ccc(Br)cc1)O2 (racemic) [117F, Rac-(4bS,5S,6R,7S,7aR)-7a-(4-bromophenyl)-4-methoxy-7-phenyl-6-((2,2,2-trifluoroethyl)sulfonyl)-5,6,7,7a-tetrahydro-4bH-cyclopenta[4,5]furo[2,3-c]pyridine-4b,5-diol]	> 1 µM
COc1nc(Cl)cc2c1[C@]1(O)[C@H](O)[C@H](CN)[C@@H](c3ccccc3)[C@]1(c1ccc(C#N)cc1)O2 (racemic) [294F, Rac-4-((5aR,6S,7S,8R,8aS)-7-(aminomethyl)-3-chloro-8,8a-dihydroxy-1-methoxy-6-phenyl-6,7,8,8a-tetrahydro-5aH-cyclopenta[4,5]furo[3,2-c]pyridin-5a-yl)benzonitrile]	< 0.1 µM
N#Cc1ccc([C@@]23Oc4cc(Cl)cnc4[C@]2(O)[C@@H](O)C[C@H]3c2ccccc2)cc1 (racemic) [131F, Rac-4-((5aR,6S,8S,8aS)-3-chloro-8,8a-dihydroxy-6-phenyl-6,7,8,8a-tetrahydro-5aH-cyclopenta[4,5]furo[3,2-b]pyridin-5a-yl)benzonitrile]	> 1 µM
COc1cncc2c1[C@]1(O)[C@H](O)[C@H](CCN(C)C)[C@@H](c3ccccc3)[C@]1(c1ccc(C#N)cc1)O2 (racemic) [276F, Rac-4-((4bS,5R,6R,7S,7aR)-6-(2-(dimethylamino)ethyl)-4b,5-dihydroxy-4-methoxy-7-phenyl-4b,5,6,7-tetrahydro-7aH-cyclopenta[4,5]furo[2,3-c]pyridin-7a-yl)benzonitrile]	0.1 to 1 µM
COc1nc(C#N)cc2c1[C@]1(O)[C@H](O)[C@H](CN(C)CC(F)F)[C@@H](c3ccccc3)[C@]1(c1ccc(C#N)cc1)O2 (racemic) [208Fa, Rac-(5aR,6S,7S,8R,8aS)-5a-(4-cyanophenyl)-7-(((2,2-difluoroethyl)(methyl)amino)methyl)-8,8a-dihydroxy-1-methoxy-6-phenyl-5a,7,8,8a-tetrahydro-6H-cyclopenta[4,5]furo[3,2-c]pyridine-3-carbonitrile]	0.1 to 1 µM
Cc1ccc([C@@]23Oc4cc(Cl)cnc4[C@]2(O)[C@H](O)[C@H](C(=O)N(C)C)[C@H]3c2ccccc2)cc1 (single isomer, unassigned) [7F]	0.1 to 1 µM
CNC[C@H]1[C@@H](O)[C@@]2(O)c3ncc(Cl)cc3O[C@@]2(c2ccc(C#N)cc2)[C@@H]1c1ccccc1 (racemic) [39F, Rac-4-((5aR,6S,7S,8R,8aS)-3-chloro-8,8a-dihydroxy-7-((methylamino)methyl)-6-phenyl-6,7,8,8a-tetrahydro-5aH-cyclopenta[4,5]furo[3,2-b]pyridin-5a-yl)benzonitrile]	0.1 to 1 µM
COc1nc(C#N)cc2c1[C@]1(O)[C@@H](CN3CCC(F)(F)CC3)[C@H](CO)[C@@H](c3ccccc3)[C@]1(c1ccc(C#N)cc1)O2 (racemic) [213F, Rac-(5aR,6S,7R,8R,8aR)-5a-(4-cyanophenyl)-8-((4,4-difluoropiperidin-1-yl)methyl)-8a-hydroxy-7-(hydroxymethyl)-1-methoxy-6-phenyl-5a,7,8,8a-tetrahydro-6H-cyclopenta[4,5]furo[3,2-c]pyridine-3-carbonitrile]	< 0.1 µM
COc1nc(Cl)cc2c1[C@]1(O)[C@H](O)[C@H](C(=O)N(C)C)[C@@H](c3ccccc3)[C@]1(c1ccc(Br)cc1)O2 (racemic) [137F, Rac-(5aR,6S,7R,8R,8aS)-5a-(4-bromophenyl)-3-chloro-8,8a-dihydroxy-1-methoxy-N,N-dimethyl-6-phenyl-5a,7,8,8a-tetrahydro-6H-cyclopenta[4,5]furo[3,2-c]pyridine-7-carboxamide]	< 0.1 µM
COc1nc(C#N)cc2c1[C@]1(O)[C@H](O)[C@H](CNCC(F)F)[C@@H](c3ccccc3)[C@]1(c1ccc(C#N)cc1)O2 (racemic) [197F, Rac-(5aR,6S,7S,8R,8aS)-5a-(4-cyanophenyl)-7-(((2,2-difluoroethyl)amino)methyl)-8,8a-dihydroxy-1-methoxy-6-phenyl-5a,7,8,8a-tetrahydro-6H-cyclopenta[4,5]furo[3,2-c]pyridine-3-carbonitrile]	0.1 to 1 µM
COc1cncc2c1[C@]1(O)[C@H](O)[C@H](C(=O)N3CC(F)(F)C3)[C@@H](c3ccccc3)[C@]1(c1ccc(Br)cc1)O2 (racemic) [121F, Rac-((4bS,5R,6R,7S,7aR)-7a-(4-bromophenyl)-4b,5-dihydroxy-4-methoxy-7-phenyl-4b,6,7,7a-tetrahydro-5H-cyclopenta[4,5]furo[2,3-c]pyridin-6-yl)(3,3-difluoroazetidin-1-yl)methanone]	0.1 to 1 µM
COc1cncc2c1[C@]1(O)[C@@H](CNCc3ccncc3)[C@H](CO)[C@@H](c3ccccc3)[C@]1(c1ccc(Br)cc1)O2 (racemic) [187F, Rac-(4bR,5R,6R,7S,7aR)-7a-(4-bromophenyl)-6-(hydroxymethyl)-4-methoxy-7-phenyl-5-(((pyridin-4-ylmethyl)amino)methyl)-5,6,7,7a-tetrahydro-4bH-cyclopenta[4,5]furo[2,3-c]pyridin-4b-ol]	< 0.1 µM
COc1nc(C#N)cc2c1[C@]1(O)[C@H](O)[C@H](CN(C)C)[C@@H](c3ccccc3)[C@]1(c1ccc(C(F)F)cc1)O2 (racemic) [146F, Rac-(5aR,6S,7S,8R,8aS)-5a-(4-(difluoromethyl)phenyl)-7-((dimethylamino)methyl)-8,8a-dihydroxy-1-methoxy-6-phenyl-5a,7,8,8a-tetrahydro-6H-cyclopenta[4,5]furo[3,2-c]pyridine-3-carbonitrile]	< 0.1 µM
CN(C)C(=O)[C@H]1[C@@H](O)[C@@]2(O)c3c(Cl)cncc3O[C@@]2(c2ccc(C#N)cc2)[C@@H]1c1ccccc1 (single isomer, unassigned) [98F]	0.1 to 1 µM
COc1cncc2c1[C@]1(O)[C@H](O)[C@H](C(=O)N(C)CC(C)(C)O)[C@@H](c3ccccc3)[C@]1(c1ccc(Br)cc1)O2 (racemic) [251F, Rac-(4bS,5R,6R,7S,7aR)-7a-(4-bromophenyl)-4b,5-dihydroxy-N-(2-hydroxy-2-methylpropyl)-4-methoxy-N-methyl-7-phenyl-4b,6,7,7a-tetrahydro-5H-cyclopenta[4,5]furo[2,3-c]pyridine-6-carboxamide]	< 0.1 µM
COC[C@H]1[C@@H](O)[C@@]2(O)c3ncc(Cl)cc3O[C@@]2(c2ccc(Br)cc2)[C@@H]1c1ccccc1 (racemic) [62F, rac-(5aR,6S,7S,8R,8aS)-5a-(4-bromophenyl)-3-chloro-7-(methoxymethyl)-6-phenyl-5a,6,7,8-tetrahydro-8aH-cyclopenta[4,5]furo[3,2-b]pyridine-8,8a-diol]	0.1 to 1 µM
CNC(=O)[C@H]1[C@@H](O)[C@@]2(O)c3ncc(Cl)cc3O[C@@]2(c2ccc(C#N)cc2)[C@@H]1c1ccccc1 (single isomer, unassigned) [20F]	< 0.1 µM
